Active and inactive are the calls of the source. No cut-off for these calls is given here. Starred links: 1 amine or outer side, 2 acyl side, 3 side chain; linkers in the order of their positions; H or OH if unused. Non-standard residues stand in square brackets, D forms with d. Residues, ends and D or L forms follow the SMILES beside them. dTrp(2-Me) = Cc1[nH]c2ccccc2c1C[C@@H](N)C(=O)O; azaTyr = O=C(N(Cc1ccc(O)cc1)N[*:1])[*:2]; azaPhe = O=C(N(Cc1ccccc1)N[*:1])[*:2]
Experiments:
[1] = molecular target: Platelet glycoprotein 4 (Rattus norvegicus, UniProt Q07969); experiment: Inhibition of photoactivatable [125I]-Tyr-Bpa-Ala-hexarelin binding to CD36 in Sprague-Dawley rat heart membranes after 60 mins by SDS-PAGE analysis; type: cell membranes, Membrane
Platelet glycoprotein 4, sequence (Q07969 whole entry): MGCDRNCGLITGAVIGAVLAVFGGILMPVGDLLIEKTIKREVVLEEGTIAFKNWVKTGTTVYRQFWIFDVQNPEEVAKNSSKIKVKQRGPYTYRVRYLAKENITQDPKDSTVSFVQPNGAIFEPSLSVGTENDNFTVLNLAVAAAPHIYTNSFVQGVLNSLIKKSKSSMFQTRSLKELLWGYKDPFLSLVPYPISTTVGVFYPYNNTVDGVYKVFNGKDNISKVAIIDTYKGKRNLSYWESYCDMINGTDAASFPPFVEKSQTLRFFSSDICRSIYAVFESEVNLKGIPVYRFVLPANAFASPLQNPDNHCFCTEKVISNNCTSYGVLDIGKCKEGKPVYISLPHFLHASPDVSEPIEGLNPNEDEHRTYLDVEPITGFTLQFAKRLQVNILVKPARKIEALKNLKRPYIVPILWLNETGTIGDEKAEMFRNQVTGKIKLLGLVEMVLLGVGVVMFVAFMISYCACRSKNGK

[2] = molecular target: Platelet glycoprotein 4 (Rattus norvegicus) (UniProt Q07969); experiment: Inhibition of photoactivatable [125I]-Tyr-Bpa-Ala-hexarelin binding to CD36 in Sprague-Dawley rat heart membranes after 60 mins by SDS-PAGE analysis relative to H-His-D-Trp-Ala-aza(3-hydroxy)Phe-D-Phe-Lys-NH2; type: cell membranes; conditions: Membrane
Platelet glycoprotein 4 (Rattus norvegicus), sequence (Q07969 whole entry): as above

[3] = organism: Mus musculus; experiment: Anti-angiogenic activity in mouse sclera/choroid/retinal pigment epithelium complex assessed as reduction in microvascular sprouting at 1 uM after 24 hrs by microscopic analysis; type: functional
[4] = molecular target: Platelet glycoprotein 4 (Mus musculus) (UniProt Q08857); experiment: Modulation of CD36 in mouse […] cells assessed as inhibition of R-FSL1-induced NO over production at 1 uM preincubated for 1 hr followed by overnight R-FSL1 stimulation by DAN-fluorescence assay relative to control; type: cell-based
Platelet glycoprotein 4 (Mus musculus), sequence (Q08857 whole entry): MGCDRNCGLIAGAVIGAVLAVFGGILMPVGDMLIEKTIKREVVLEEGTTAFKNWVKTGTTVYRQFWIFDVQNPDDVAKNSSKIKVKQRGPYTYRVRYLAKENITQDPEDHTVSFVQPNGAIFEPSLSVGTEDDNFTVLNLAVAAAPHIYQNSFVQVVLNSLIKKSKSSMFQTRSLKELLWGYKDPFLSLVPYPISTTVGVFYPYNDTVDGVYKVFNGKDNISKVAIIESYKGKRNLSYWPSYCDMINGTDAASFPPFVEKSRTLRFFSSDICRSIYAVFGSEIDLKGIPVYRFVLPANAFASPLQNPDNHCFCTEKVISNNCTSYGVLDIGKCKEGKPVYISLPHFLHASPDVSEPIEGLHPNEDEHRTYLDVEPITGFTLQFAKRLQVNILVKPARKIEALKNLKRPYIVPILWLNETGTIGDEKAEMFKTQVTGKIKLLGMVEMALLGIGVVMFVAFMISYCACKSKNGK

[5] = molecular target: Platelet glycoprotein 4 (Mus musculus) (UniProt Q08857); experiment: Modulation of CD36 in mouse J774A.1 cells assessed as inhibition of R-FSL1-induced NO over production at 1 uM preincubated for 1 hr followed by overnight R-FSL1 stimulation by DAN-fluorescence assay relative to control; type: cell-based
[6] = Pro-angiogenic activity in mouse sclera/choroid/retinal pigment epithelium complex assessed as increase in microvascular sprouting at 1 uM after 24 hrs by microscopic analysis; type: ADME

C[C@H](N)C(=O)N[C@H](Cc1c[nH]c2ccccc12)C(=O)N[C@@H](C)C(=O)NN(Cc1ccc(Cl)cc1)C(=O)N[C@H](Cc1ccccc1)C(=O)N[C@@H](CCCCN)C(N)=O
IC50 [1]: 4.94 µM
fold change (FC) [2]: 5.7
Activity [3]: Active

C[C@H](NC(=O)[C@@H](Cc1c[nH]c2ccccc12)NC(=O)[C@@H](N)Cc1cnc[nH]1)C(=O)NN(Cc1ccc(O)cc1)C(=O)N[C@H](Cc1ccccc1)C(=O)N[C@@H](CCCCN)C(N)=O (H-H[dW]A[azaTyr][dF]K-NH2)
inhibition [4]: inactive
inhibition [5]: inactive
IC50 [1]: 1.9 µM
fold change (FC) [2]: 14.8
Activity [3]: Active

C[C@H](NC(=O)[C@@H](Cc1c[nH]c2ccccc12)NC(=O)[C@@H](N)Cc1cnc[nH]1)C(=O)NN(Cc1ccc(C(F)(F)F)cc1)C(=O)N[C@H](Cc1ccccc1)C(=O)N[C@@H](CCCCN)C(N)=O
inhibition [4]: inactive
inhibition [5]: inactive

Cc1cccc(C)c1CN(NC(=O)[C@H](C)NC(=O)[C@@H](Cc1c[nH]c2ccccc12)NC(=O)[C@@H](N)Cc1cnc[nH]1)C(=O)N[C@H](Cc1ccccc1)C(=O)N[C@@H](CCCCN)C(N)=O
inhibition [4]: Active
inhibition [5]: Active
IC50 [1]: 5.51 µM
fold change (FC) [2]: 5.1
Activity [3]: inactive

C[C@H](NC(=O)[C@@H](Cc1c[nH]c2ccccc12)NC(=O)[C@@H](N)Cc1cnc[nH]1)C(=O)NN(Cc1cccc(O)c1)C(=O)N[C@H](Cc1ccccc1)C(=O)N[C@@H](CCCCN)C(N)=O
inhibition [4]: inactive
inhibition [5]: inactive
IC50 [1]: 28.2 µM
Activity [3]: inactive

C[C@H](N)C(=O)N[C@H](Cc1c[nH]c2ccccc12)C(=O)N[C@@H](C)C(=O)NN(Cc1ccc(Br)cc1)C(=O)N[C@H](Cc1ccccc1)C(=O)N[C@@H](CCCCN)C(N)=O
IC50 [1]: 12.5 µM
fold change (FC) [2]: 2.2
Activity [3]: inactive

C[C@H](N)C(=O)N[C@H](Cc1c[nH]c2ccccc12)C(=O)N[C@@H](C)C(=O)NN(Cc1ccc(C(F)(F)F)cc1)C(=O)N[C@H](Cc1ccccc1)C(=O)N[C@@H](CCCCN)C(N)=O
inhibition [4]: inactive
inhibition [5]: inactive

C[C@H](NC(=O)[C@@H](Cc1c[nH]c2ccccc12)NC(=O)[C@@H](N)Cc1cnc[nH]1)C(=O)NN(Cc1c[nH]nn1)C(=O)N[C@H](Cc1ccccc1)C(=O)N[C@@H](CCCCN)C(N)=O
inhibition [4]: inactive
inhibition [5]: inactive

C[C@H](N)C(=O)N[C@H](Cc1c[nH]c2ccccc12)C(=O)N[C@@H](C)C(=O)NN(Cc1ccc([N+](=O)[O-])cc1)C(=O)N[C@H](Cc1ccccc1)C(=O)N[C@@H](CCCCN)C(N)=O
inhibition [4]: Active
inhibition [5]: Active

COc1cc(Cl)cc(Cl)c1CN(NC(=O)[C@H](C)NC(=O)[C@@H](Cc1c[nH]c2ccccc12)NC(=O)[C@@H](N)Cc1cnc[nH]1)C(=O)N[C@H](Cc1ccccc1)C(=O)N[C@@H](CCCCN)C(N)=O
inhibition [4]: inactive
inhibition [5]: inactive

C[C@H](N)C(=O)N[C@H](Cc1c[nH]c2ccccc12)C(=O)N[C@@H](C)C(=O)NN(Cc1ccc(O)cc1)C(=O)N[C@H](Cc1ccccc1)C(=O)N[C@@H](CCCCN)C(N)=O (H-A[dW]A[azaTyr][dF]K-NH2)
IC50 [1]: 9.19 µM
fold change (FC) [2]: 3.1
Activity [3]: inactive

C[C@H](NC(=O)[C@@H](Cc1c[nH]c2ccccc12)NC(=O)[C@@H](N)Cc1cnc[nH]1)C(=O)NN(CCCCCN)C(=O)N[C@H](Cc1ccccc1)C(=O)N[C@@H](CCCCN)C(N)=O
inhibition [4]: inactive
inhibition [5]: inactive

COc1ccc(CN(NC(=O)[C@H](C)NC(=O)[C@@H](Cc2c[nH]c3ccccc23)NC(=O)[C@@H](N)Cc2cnc[nH]2)C(=O)N[C@H](Cc2ccccc2)C(=O)N[C@@H](CCCCN)C(N)=O)cc1
inhibition [4]: Active
inhibition [5]: Active
IC50 [1]: 7.51 µM
fold change (FC) [2]: 3.7
Activity [3]: Active

C[C@H](NC(=O)[C@@H](Cc1c[nH]c2ccccc12)NC(=O)[C@@H](N)Cc1cnc[nH]1)C(=O)NN(Cc1ccc([N+](=O)[O-])cc1)C(=O)N[C@H](Cc1ccccc1)C(=O)N[C@@H](CCCCN)C(N)=O
inhibition [4]: inactive
inhibition [5]: inactive

Cc1cc(F)cc(C)c1CN(NC(=O)[C@H](C)NC(=O)[C@@H](Cc1c[nH]c2ccccc12)NC(=O)[C@@H](N)Cc1cnc[nH]1)C(=O)N[C@H](Cc1ccccc1)C(=O)N[C@@H](CCCCN)C(N)=O
inhibition [4]: Active
inhibition [5]: Active
IC50 [1]: 5.58 µM
fold change (FC) [2]: 5
Activity [3]: inactive

C[C@H](N)C(=O)N[C@H](Cc1c[nH]c2ccccc12)C(=O)N[C@@H](C)C(=O)NN(Cc1ccccc1)C(=O)N[C@H](Cc1ccccc1)C(=O)N[C@@H](CCCCN)C(N)=O (H-A[dW]A[azaPhe][dF]K-NH2)
inhibition [4]: Active
inhibition [5]: Active
IC50 [1]: 19 µM
fold change (FC) [2]: 1.5
Activity [3]: inactive

COc1ccc(CN(NC(=O)[C@H](C)NC(=O)[C@@H](Cc2c[nH]c3ccccc23)NC(=O)[C@H](C)N)C(=O)N[C@H](Cc2ccccc2)C(=O)N[C@@H](CCCCN)C(N)=O)cc1
inhibition [4]: Active
inhibition [5]: Active

Cc1[nH]c2ccccc2c1C[C@@H](NC(=O)[C@@H](N)Cc1c[nH]cn1)C(=O)N[C@@H](C)C(=O)N[C@@H](Cc1c[nH]c2ccccc12)C(=O)N[C@H](Cc1ccccc1)C(=O)N[C@@H](CCCCN)C(N)=O (H-H[dTrp(2-Me)]AW[dF]K-NH2)
fold change (FC) [2]: 18.1

C[C@H](NC(=O)[C@@H](Cc1c[nH]c2ccccc12)NC(=O)[C@@H](N)Cc1cnc[nH]1)C(=O)NN(Cc1ccc(Br)cc1)C(=O)N[C@H](Cc1ccccc1)C(=O)N[C@@H](CCCCN)C(N)=O
inhibition [4]: Active
inhibition [5]: Active
IC50 [1]: 3.6 µM
fold change (FC) [2]: 7.8
Activity [3]: Active

COc1cc(Cl)c(CN(NC(=O)[C@H](C)NC(=O)[C@@H](Cc2c[nH]c3ccccc23)NC(=O)[C@@H](N)Cc2cnc[nH]2)C(=O)N[C@H](Cc2ccccc2)C(=O)N[C@@H](CCCCN)C(N)=O)c(Cl)c1
inhibition [4]: inactive
inhibition [5]: inactive

C[C@H](NC(=O)[C@@H](Cc1c[nH]c2ccccc12)NC(=O)[C@@H](N)Cc1cnc[nH]1)C(=O)NN(Cc1ccc(Cl)cc1)C(=O)N[C@H](Cc1ccccc1)C(=O)N[C@@H](CCCCN)C(N)=O
inhibition [4]: Active
inhibition [5]: Active
IC50 [1]: 8.36 µM
fold change (FC) [2]: 3.4
Activity [6]: Toxic

C[C@H](NC(=O)[C@@H](Cc1c[nH]c2ccccc12)NC(=O)[C@@H](N)Cc1cnc[nH]1)C(=O)NN(Cc1ccccc1)C(=O)N[C@H](Cc1ccccc1)C(=O)N[C@@H](CCCCN)C(N)=O (H-H[dW]A[azaPhe][dF]K-NH2)
inhibition [4]: inactive
inhibition [5]: inactive
IC50 [1]: 10.1 µM
fold change (FC) [2]: 2.8
Activity [3]: inactive

CC(C)Oc1ccc(CN(NC(=O)[C@H](C)NC(=O)[C@@H](Cc2c[nH]c3ccccc23)NC(=O)[C@@H](N)Cc2cnc[nH]2)C(=O)N[C@H](Cc2ccccc2)C(=O)N[C@@H](CCCCN)C(N)=O)cc1
inhibition [4]: inactive
inhibition [5]: inactive

C[C@H](NC(=O)[C@@H](Cc1c[nH]c2ccccc12)NC(=O)[C@@H](N)Cc1cnc[nH]1)C(=O)NN(Cc1ccc(F)cc1)C(=O)N[C@H](Cc1ccccc1)C(=O)N[C@@H](CCCCN)C(N)=O
inhibition [4]: Active
inhibition [5]: Active
IC50 [1]: 6.06 µM
fold change (FC) [2]: 4.6
Activity [3]: Active

C[C@H](NC(=O)[C@@H](Cc1c[nH]c2ccccc12)NC(=O)[C@@H](N)Cc1cnc[nH]1)C(=O)NN(Cc1c(F)cc(F)cc1F)C(=O)N[C@H](Cc1ccccc1)C(=O)N[C@@H](CCCCN)C(N)=O
inhibition [4]: inactive
inhibition [5]: inactive

C[C@H](N)C(=O)N[C@H](Cc1c[nH]c2ccccc12)C(=O)N[C@@H](C)C(=O)NN(Cc1ccc(I)cc1)C(=O)N[C@H](Cc1ccccc1)C(=O)N[C@@H](CCCCN)C(N)=O
inhibition [4]: inactive
inhibition [5]: inactive

C[C@H](NC(=O)[C@@H](Cc1c[nH]c2ccccc12)NC(=O)[C@@H](N)Cc1cnc[nH]1)C(=O)NN(Cc1ccc(I)cc1)C(=O)N[C@H](Cc1ccccc1)C(=O)N[C@@H](CCCCN)C(N)=O
inhibition [4]: inactive
inhibition [5]: inactive

CCCOc1ccc(CN(NC(=O)[C@H](C)NC(=O)[C@@H](Cc2c[nH]c3ccccc23)NC(=O)[C@@H](N)Cc2cnc[nH]2)C(=O)N[C@H](Cc2ccccc2)C(=O)N[C@@H](CCCCN)C(N)=O)cc1
inhibition [4]: Active
inhibition [5]: Active
IC50 [1]: 1.65 µM
fold change (FC) [2]: 17.1
Activity [6]: Toxic

From ChEMBL document CHEMBL4017547, “Influences of Histidine-1 and Azaphenylalanine-4 on the Affinity, Anti-inflammatory, and Antiangiogenic Activities of Azapeptide Cluster of Differentiation 36 Receptor Modulators” (J Med Chem, 2017)
